# Experimental data published in PubChem BioAssay AID1918947 (Molecular Pharmacology Branch, DTP, NCI, 2023).
# “And” between values parts separate entries of the source, which are not always exact repeats. Identical values can stand only once.
# Test system: A498 complex spheroid viability
# Assay: Anticancer human tumor A498 cell line growth inhibition;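 also: spheroids exposed to agents for seven days before readout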;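 as to viability, T/C: 100% = DMSO vehicle-treated spheroids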
# Conditions: for viability, T/C: stronger effect = lower value
# Procedure, shortened: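 Drug combinations with the LSD1 inhibitor iadademstat tested on tumor cells co-cultured as spheroids with endothelial cells and mesenchymal stem cells. Concentrations descended in half-log increments from clinical Cmax or 10 microM.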
# [1] = curve of first compound, second compound 0.1 µM
# [2] = curve of first compound, second compound 0.316 µM
# [3] = curve of first compound, second compound 1 µM
# [4] = curve of first compound, second compound 3.16 µM
# [5] = curve of first compound, second compound 10 µM
# [6] = second compound 0.1 µM, first compound 0.00949 µM
# [7] = second compound 0.1 µM, first compound 0.03 µM
# [8] = second compound 0.1 µM, first compound 0.0949 µM
# [9] = second compound 0.1 µM, first compound 0.3 µM
# [10] = second compound 0.1 µM, first compound 0.949 µM
# [11] = second compound 0.1 µM, first compound 3 µM
# [12] = second compound 0.316 µM, first compound 0.00949 µM
# [13] = second compound 0.316 µM, first compound 0.03 µM
# [14] = second compound 0.316 µM, first compound 0.0949 µM
# [15] = second compound 0.316 µM, first compound 0.3 µM
# [16] = second compound 0.316 µM, first compound 0.949 µM
# [17] = second compound 0.316 µM, first compound 3 µM
# [18] = second compound 1 µM, first compound 0.00949 µM
# [19] = second compound 1 µM, first compound 0.03 µM
# [20] = second compound 1 µM, first compound 0.0949 µM
# [21] = second compound 1 µM, first compound 0.3 µM
# [22] = second compound 1 µM, first compound 0.949 µM
# [23] = second compound 1 µM, first compound 3 µM
# [24] = second compound 3.16 µM, first compound 0.00949 µM
# [25] = second compound 3.16 µM, first compound 0.03 µM
# [26] = second compound 3.16 µM, first compound 0.0949 µM
# [27] = second compound 3.16 µM, first compound 0.3 µM
# [28] = second compound 3.16 µM, first compound 0.949 µM
# [29] = second compound 3.16 µM, first compound 3 µM
# [30] = second compound 10 µM, first compound 0.00949 µM
# [31] = second compound 10 µM, first compound 0.03 µM
# [32] = second compound 10 µM, first compound 0.0949 µM
# [33] = second compound 10 µM, first compound 0.3 µM
# [34] = second compound 10 µM, first compound 0.949 µM
# [35] = second compound 10 µM, first compound 3 µM
smiles,measurement,setting,value
O=C(C=Cc1cccc(S(=O)(=O)Nc2ccccc2)c1)NO + NC1CC1c1ccc(-c2cccc(O)c2)cc1,IC50,[1],352 nM
same,IC50,[2],398 nM
same,IC50,[3],325 nM
same,IC50,[4],364 nM
same,IC50,[5],343 nM
same,"viability, T/C",[6],105%
same,"viability, T/C",[7],90.2%
same,"viability, T/C",[8],78.6%
same,"viability, T/C",[9],49%
same,"viability, T/C",[10],32.4%
same,"viability, T/C",[11],7.4%
same,"viability, T/C",[12],105%
same,"viability, T/C",[13],93.2%
same,"viability, T/C",[14],76.9%
same,"viability, T/C",[15],53.3%
same,"viability, T/C",[16],34.3%
same,"viability, T/C",[17],7.34%
same,"viability, T/C",[18],98.4%
same,"viability, T/C",[19],88.3%
same,"viability, T/C",[20],76.8%
same,"viability, T/C",[21],49.3%
same,"viability, T/C",[22],28.4%
same,"viability, T/C",[23],6.7%
same,"viability, T/C",[24],93.9%
same,"viability, T/C",[25],84.4%
same,"viability, T/C",[26],66.6%
same,"viability, T/C",[27],52.2%
same,"viability, T/C",[28],37.6%
same,"viability, T/C",[29],5.52%
same,"viability, T/C",[30],93.2%
same,"viability, T/C",[31],81.3%
same,"viability, T/C",[32],66.7%
same,"viability, T/C",[33],55.5%
same,"viability, T/C",[34],30.7%
same,"viability, T/C",[35],5.21%
NS(=O)(=O)OCC1CC(n2ccc3c(NC4CCc5ccccc54)ncnc32)CC1O (centres undefined) + NC1CCC(NC2CC2c2ccccc2)CC1,IC50,[1],20.8 nM
same,IC50,[2],20.2 nM
same,IC50,[3],< 9.49 nM
same,IC50,[4],< 9.49 nM
same,IC50,[5],< 9.49 nM
same,"viability, T/C",[6],61.1%
same,"viability, T/C",[7],43.3%
same,"viability, T/C",[8],35%
same,"viability, T/C",[9],24%
same,"viability, T/C",[10],19.4%
same,"viability, T/C",[11],15.3%
same,"viability, T/C",[12],64.5%
same,"viability, T/C",[13],41.2%
same,"viability, T/C",[14],30.8%
same,"viability, T/C",[15],22.7%
same,"viability, T/C",[16],17.8%
same,"viability, T/C",[17],15.6%
same,"viability, T/C",[18],47.8%
same,"viability, T/C",[19],29.6%
same,"viability, T/C",[20],21.4%
same,"viability, T/C",[21],19.5%
same,"viability, T/C",[22],14.3%
same,"viability, T/C",[23],11.8%
same,"viability, T/C",[24],31.8%
same,"viability, T/C",[25],15.6%
same,"viability, T/C",[26],16.6%
same,"viability, T/C",[27],11.5%
same,"viability, T/C",[28],8.41%
same,"viability, T/C",[29],6.43%
same,"viability, T/C",[30],11.8%
same,"viability, T/C",[31],8.27%
same,"viability, T/C",[32],6.84%
same,"viability, T/C",[33],5.05%
same,"viability, T/C",[34],4.15%
same,"viability, T/C",[35],6.13%
COc1cc(C2c3cc4c(cc3C(OC3OC5COC(C)OC5C(O)C3O)C3COC(=O)C23)OCO4)cc(OC)c1O (centres undefined) + NC1CC1c1ccc(-c2cccc(O)c2)cc1,IC50,[1],1800 nM
same,IC50,[2],> 3000 nM
same,IC50,[3],1110 nM
same,IC50,[4],296 nM
same,IC50,[5],523 nM
same,"viability, T/C",[6],75.3%
same,"viability, T/C",[7],68.7%
same,"viability, T/C",[8],62.1%
same,"viability, T/C",[9],62.8%
same,"viability, T/C",[10],58.2%
same,"viability, T/C",[11],44.4%
same,"viability, T/C",[12],87.3%
same,"viability, T/C",[13],74.7%
same,"viability, T/C",[14],68.7%
same,"viability, T/C",[15],58.6%
same,"viability, T/C",[16],55.6%
same,"viability, T/C",[17],51.3%
same,"viability, T/C",[18],76.7%
same,"viability, T/C",[19],63%
same,"viability, T/C",[20],59.9%
same,"viability, T/C",[21],49.8%
same,"viability, T/C",[22],54.1%
same,"viability, T/C",[23],46.5%
same,"viability, T/C",[24],66.4%
same,"viability, T/C",[25],53.6%
same,"viability, T/C",[26],55.9%
same,"viability, T/C",[27],52.2%
same,"viability, T/C",[28],46.1%
same,"viability, T/C",[29],42.9%
same,"viability, T/C",[30],63.5%
same,"viability, T/C",[31],61.1%
same,"viability, T/C",[32],57.5%
same,"viability, T/C",[33],51.7%
same,"viability, T/C",[34],47.4%
same,"viability, T/C",[35],41.7%
Nc1ncn(C2CC(O)C(CO)S2)c(=O)n1 (centres undefined),"viability, T/C",compound 0.000949 µM,105% and 109%
same,"viability, T/C",compound 0.003 µM,104% and 117%
same,"viability, T/C",compound 0.00949 µM,99.6% and 102%
same,"viability, T/C",compound 0.03 µM,85.2% and 89.5%
same,"viability, T/C",compound 0.0949 µM,59.4% and 70%
same,"viability, T/C",compound 0.3 µM,33.8% and 40%
same,IC50,curve of compound,144 nM and 202 nM
COc1ccc([C@@H](O)c2cc(-c3ncnc4cc(N5CCOCC5)ccc34)c(F)cc2Cl)nn1 + NC1CC1c1ccc(-c2cccc(O)c2)cc1,IC50,[1],96.3 nM
same,IC50,[2],112 nM
same,IC50,[3],96.2 nM
same,IC50,[4],89 nM
same,IC50,[5],69.9 nM
same,"viability, T/C","second compound 0.1 µM, first compound 0.0316 µM",75%
same,"viability, T/C","second compound 0.1 µM, first compound 0.1 µM",49.5%
same,"viability, T/C","second compound 0.1 µM, first compound 0.316 µM",28.1%
same,"viability, T/C","second compound 0.1 µM, first compound 1 µM",16.7%
same,"viability, T/C","second compound 0.1 µM, first compound 3.16 µM",9.62%
same,"viability, T/C","second compound 0.1 µM, first compound 10 µM",5.97%
same,"viability, T/C","second compound 0.316 µM, first compound 0.0316 µM",80.4%
same,"viability, T/C","second compound 0.316 µM, first compound 0.1 µM",52.9%
same,"viability, T/C","second compound 0.316 µM, first compound 0.316 µM",28.8%
same,"viability, T/C","second compound 0.316 µM, first compound 1 µM",19.5%
same,"viability, T/C","second compound 0.316 µM, first compound 3.16 µM",9.72%
same,"viability, T/C","second compound 0.316 µM, first compound 10 µM",6.4%
same,"viability, T/C","second compound 1 µM, first compound 0.0316 µM",70.6%
same,"viability, T/C","second compound 1 µM, first compound 0.1 µM",50.1%
same,"viability, T/C","second compound 1 µM, first compound 0.316 µM",27.4%
same,"viability, T/C","second compound 1 µM, first compound 1 µM",17.2%
same,"viability, T/C","second compound 1 µM, first compound 3.16 µM",9.2%
same,"viability, T/C","second compound 1 µM, first compound 10 µM",6.15%
same,"viability, T/C","second compound 3.16 µM, first compound 0.0316 µM",73.1%
same,"viability, T/C","second compound 3.16 µM, first compound 0.1 µM",46.8%
same,"viability, T/C","second compound 3.16 µM, first compound 0.316 µM",29.7%
same,"viability, T/C","second compound 3.16 µM, first compound 1 µM",16.7%
same,"viability, T/C","second compound 3.16 µM, first compound 3.16 µM",8.9%
same,"viability, T/C","second compound 3.16 µM, first compound 10 µM",5.52%
same,"viability, T/C","second compound 10 µM, first compound 0.0316 µM",67.1%
same,"viability, T/C","second compound 10 µM, first compound 0.1 µM",42.5%
same,"viability, T/C","second compound 10 µM, first compound 0.316 µM",24.5%
same,"viability, T/C","second compound 10 µM, first compound 1 µM",16.6%
same,"viability, T/C","second compound 10 µM, first compound 3.16 µM",8.67%
same,"viability, T/C","second compound 10 µM, first compound 10 µM",5.51%
CC(C)c1c(-c2ccccc2)nc2c(C#N)c[nH]n2c1=O,"viability, T/C",compound 0.0316 µM,101% and 102%
same,"viability, T/C",compound 0.1 µM,104% and 102%
same,"viability, T/C",compound 0.316 µM,101% and 104%
same,"viability, T/C",compound 1 µM,103% and 97.9%
same,"viability, T/C",compound 3.16 µM,102% and 107%
same,"viability, T/C",compound 10 µM,101% and 107%
same,IC50,curve of compound,> 10000 nM
